Source: patent US20170202847A1, “METHODS FOR THE TREATMENT OF TUMORS” (The University of North Carolina at Chapel Hill, priority 2014, published 2017)
Entries after “also recorded” stand apart in the source; their conditions may differ. Where two headings read alike, the source gives them in different places. One block for each molecule: values may come before it.

Key:
AKT and STAT6 activation = AKT and STAT6 activation in AML cell lines; type: cell-based; conditions: short term exposure; cell lines expressing FLT3-ITD or MER
Source text: (§1) FLT-3 and MER tyrosine kinases have been previously identified as potential targets in the treatment of acute myeloid leukemia (AML). Expression of FLT-3 internal tandem duplication (ITD) occurs in ˜30-40% of AML patient samples and MER overexpression has been detected in ˜80-100%. In this example, a novel first-in-class small molecule inhibitor that has potent activity against both of these kinases and mediates growth inhibition or apoptosis of cell lines and patient myeloblasts is disclosed. […] See, FIGS. 4A-F.

[1] = test system: primary AML patient samples (MER and/or FLT3-ITD positive); experiment: Primary AML patient samples: phosphorylation, apoptosis, colony formation in methylcellulose; type: cell-based, human
Source text: as §1

[2] = test system: MER-positive (Kasumi-1 and U937) AML cell lines; experiment: Apoptosis of MER-positive AML cell lines by flow cytometry; type: cell-based; conditions: vehicle 20±10%, p<0.01
Source text: as §1

[3] = test system: MER-positive (Kasumi-1 and U937) AML cell lines; experiment: Soft agar colony formation of MER-positive AML cell lines; type: cell-based; conditions: vehicle = 100, p<0.01
Source text: as §1

[4] = test system: FLT3-ITD-positive (Molm-13 and MV4; 11) AML cell lines; experiment: Apoptosis of FLT3-ITD AML cell lines by flow cytometry; type: cell-based; conditions: vehicle 10±2%, p<0.001
Source text: as §1

[5] = Dose-finding and tolerability in mice, drug in chow; type: in vivo; conditions: for MTD: mouse, in vivo
Description: […]. AZD6244 is a MEK inhibitor that was administered in mouse chow at a predicted dose of 37 mg/kg (MTD). UNC2025 was administered in chow at a predicted dose of 120 mg/kg (MTD). […]. AZD6244 is a MEK inhibitor that was dosed in mouse chow at a predicted dose of 37 mg/kg (MTD). UNC2025 was dosed in chow at a predicted dose of 120 mg/kg (MTD).
. Once daily, oral dosing inhibits the growth of Mer-expressing leukemia and NSCLC xenografts. […]. After dose-finding studies in wild-type mice established an MTD, the inhibitor was given at 120 mpk/d in mouse chow. […]. The overall response was 10% (partial responses and stable disease). There were no complete responses. […]. […] See, FIG. 16A and FIG. 16B.

[6] = test system: Colo699 (Mer+, FGFR+) and H226 (Mer+, FGFR+) NSCLC cells; experiment: Soft agar colony formation of NSCLC cells, Mer TKI and FGFR TKI; type: cell-based; conditions: 14 days
[7] = test system: PyVmT mammary gland tumor cells; experiment: Orthotopic PyVmT mammary gland tumor model in immunocompetent C57Bl/6 mice; type: in vivo
Description: FIG. 10A is an immunoblot showing the presence of Mer TK in J774 murine macrophage and absence in PyVmT murine mammary tumor cells. FIGS. 10B and 10C illustrate the results from an immune-competent orthotopic model of Mer-negative breast cancer. […] FIG. 10B is a graph showing tumor volume (mm^3) verses days post-tumor injection.
FIG. 21A is a timeline illustrating a mouse model using PyVmT cells. […] Mice were dosed from day −2 to day 28. At day zero, 1×10^6 PyVmT cells were implanted into the inguinal mammary fatpad of mice. Tumor volumes were measured at days 16, 19, 21, 23, 26 and 28. Day 28 was the end of the study. FIG. 21B is a graph illustrating tumor volume […] verses days post-tumor injection.
See, FIGS. 10A-10C and FIGS. 21A and 21B.

[8] = test system: B-RAF wildtype (HMCB) and B-RAF mutant (G361) cell lines; experiment: Colony formation of melanoma cell lines; type: cell-based; conditions: for colony formation: HMCB and G361
Source text: (§2) See, FIG. 25A and FIG. 25B.

TRIA = TRIA tumors injected into NSG mice; type: in vivo; conditions: linear regression p<0.001
Description: FIG. 20A is a graph of tumor volume (mm^3) verses days. This is treatment of the intact GEMM. FIG. 20B is a graph illustrating the results from TRIA injected into NSG mice. The mice were then treated with no drug or UNC2025. […] In FIGS. 20A and 20B, both treated slopes were statistically significant compared to untreated slopes using linear regression p<0.001. FIG. 20C; Pten/Braf genetically engineered mice were treated with no drug or UNC2025. The graph illustrates tumor volumes (mm^3) verses days on treatment.

Pharmacokinetics in mice = conditions: mouse, in vivo
[9] = test system: HMCB and G361 melanoma cell lines; experiment: Apoptosis of melanoma cell lines by flow cytometry (YO-PRO-1 iodide/propidium iodide); type: cell-based
Source text: as §2

[10] = test system: ERK, AKT, and STAT6 signaling downstream of MER; conditions: immunoblot
Description: Downstream signaling was evaluated by immunoblotting, and induction of apoptosis was determined by flow cytometry in cells stained with YO-PRO®-1 iodide and propidium iodide.

Colo699 cells = experiment: Subcutaneous murine xenograft model of NSCLC; type: in vivo
Description: FIG. 18A is a graph illustrating tumor volume verses days treated. Colo699 tumor cells were subcutaneously implanted in mice.
(§3) The effects of Mer TKI treatment on activation of Mer and related members of the TAM-family of kinases, Axl and Tyro3, and effects on downstream proliferative and pro-survival signaling pathways were analyzed by immunoblot. In addition, Mer TKI-mediated anti-tumor activity was determined in a panel of NSCLC cell lines using soft-agar and clonogenic assays. Cells were stained with YoPro-1-iodide and propidium iodide dyes and induction of apoptosis was determined using flow cytometry. Finally, a subcutaneous murine xenograft model was employed to determine therapeutic effects in vivo.

Mer = target: T1, Mer (Homo sapiens, UniProt Q12866); experiment: Mer autophosphorylation in NSCLC cell lines by immunoblot; type: cell-based; conditions: numerous cell lines
T1 sequence (Q12866 21-999): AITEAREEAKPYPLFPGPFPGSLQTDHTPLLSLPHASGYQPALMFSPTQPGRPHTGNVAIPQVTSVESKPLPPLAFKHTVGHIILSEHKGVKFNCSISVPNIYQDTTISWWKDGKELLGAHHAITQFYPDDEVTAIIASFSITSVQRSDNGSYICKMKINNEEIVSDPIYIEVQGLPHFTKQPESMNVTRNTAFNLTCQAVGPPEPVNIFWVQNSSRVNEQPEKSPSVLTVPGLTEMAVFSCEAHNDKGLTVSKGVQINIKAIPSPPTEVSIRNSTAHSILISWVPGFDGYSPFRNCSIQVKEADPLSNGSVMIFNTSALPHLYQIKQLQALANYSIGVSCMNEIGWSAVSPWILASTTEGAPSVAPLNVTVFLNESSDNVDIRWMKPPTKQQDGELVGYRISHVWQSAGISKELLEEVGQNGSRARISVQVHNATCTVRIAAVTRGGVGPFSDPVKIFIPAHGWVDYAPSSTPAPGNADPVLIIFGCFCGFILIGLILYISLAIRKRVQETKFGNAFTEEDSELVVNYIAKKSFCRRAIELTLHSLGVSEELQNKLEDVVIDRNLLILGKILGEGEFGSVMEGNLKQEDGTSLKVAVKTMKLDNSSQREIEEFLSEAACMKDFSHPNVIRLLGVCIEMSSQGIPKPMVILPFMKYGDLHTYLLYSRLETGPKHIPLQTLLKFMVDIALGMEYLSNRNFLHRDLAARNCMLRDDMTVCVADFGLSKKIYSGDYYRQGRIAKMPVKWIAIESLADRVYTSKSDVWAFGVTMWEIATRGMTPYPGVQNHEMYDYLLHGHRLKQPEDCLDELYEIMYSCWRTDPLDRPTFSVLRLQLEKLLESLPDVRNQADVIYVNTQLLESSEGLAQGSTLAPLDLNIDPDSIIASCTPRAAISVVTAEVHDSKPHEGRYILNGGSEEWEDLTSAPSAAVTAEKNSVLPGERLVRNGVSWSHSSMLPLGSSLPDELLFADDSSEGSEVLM
Description: as §3

[11] = test system: MER-expressing ALL cell lines; experiment: Apoptosis and colony formation in methylcellulose of ALL cell lines; type: cell-based
[12] = test system: RAS-driven, INK4a/Arf null melanoma GEMM (TRIA); experiment: RAS-driven, INK4a/Arf null melanoma GEMM (TRIA); type: in vivo
Description: FIG. 14 is a waterfall plot showing percent change in tumor volumes verses days of treatment in the TRIA GEM model of melanoma. Mice were treated with UNC2025, AZD6244, Carbo/Taxol or received no treatment.
After dose-finding studies in wild-type mice established an MTD, the inhibitor was given at 120 mpk/d in mouse chow.

[13] = test system: murine model of breast cancer (C3TAg); experiment: Murine model of breast cancer (C3TAg); type: in vivo; conditions: 120 mpk/d in chow
SKMEL119 melanoma cells = experiment: Invasion into collagen matrix; type: cell-based
[14] = mouse, in vivo
[15] = compared to vehicle treated tumor-bearing mice

Structure (SMILES): CCCCNc1ncc2c(-c3ccc(S(=O)(=O)N4CCOCC4)cc3)cn(C3CCC(O)CC3)c2n1 (stereo not drawn) [UNC1666]
- AKT and STAT6 activation (AKT and STAT6 activation): dose-dependent decrease
- Mer and Flt3 kinase phosphorylation and downstream signaling ([1]; leukemic blasts from a patient with AML, 50, 100 and 300 nM): abrogates
- colony formation in methylcellulose ([1]; six primary patient samples): near complete inhibition of colony formation
- induction of apoptosis ([1]; six primary patient samples): dose-dependent induction of apoptosis
- apoptotic cells [2]: 66±10%
- relative colony counts [3]: 34±15
- apoptotic cells [4]: 90±6%

Structure (SMILES): Cn1cnc2c(F)c(Nc3ccc(Br)cc3Cl)c(C(=O)NOCCO)cc21 [AZD6244, reference compound]
- MTD [5]: 37 mg/kg

Structure (SMILES): COc1cc(CCc2cc(NC(=O)c3ccc(N4CC(C)NC(C)C4)cc3)n[nH]2)cc(OC)c1 (stereo not drawn) [AZD-4547, reference compound]
- colony formation in soft agar [6]: inhibited

Structure (SMILES): CCCCNc1ncc2c(-c3ccc(CN4CCN(C)CC4)cc3)cn([C@H]3CC[C@H](O)CC3)c2n1 [MRX6313]
- RNA-sequence data on immune cells ([7]; 3 mg/kg twice daily by oral gavage): increases pro-inflammatory cytokines in CD11b^+ cells and activates CD8^+ T cell effector function
- primary tumor growth reduction compared to vehicle ([7]; after four weeks of daily treatment): two-fold
- reduction of serum IL-4 level [7, 15]: 30%
- reduction of serum IL-10 level [7, 15]: 20%
- concentration resulting in an almost complete block in colony formation ([8]; B-RAF wild-type and B-RAF mutant cell lines): ≥ 300 nM
- colony formation [8]: reduced colony growth
- tumor volumes versus control (TRIA): significantly reduced
- oral bioavailability / pharmacokinetics (Pharmacokinetics in mice): orally bioavailable; also recorded: favorable pharmacokinetics
- apoptosis [9]: induced apoptosis
- downstream signaling [10]: abrogates signaling downstream of MER
- median survival (B-ALL xenograft; days after inoculation with tumor cells, vehicle 27 days, p<0.0001): 70 days
- tumor burden (B-ALL xenograft; minimal residual disease model): dose dependent reduction in tumor burden
- tumor volume (Colo699 cells): significant decrease in tumor volume
- Mer pharmacodynamics marker (platelet aggregation) ([5]; 120 mpk/d in mouse chow): inhibition of second phase platelet aggregation
- weight loss ([5]; 120 mpk/d in mouse chow): did not cause weight loss
- MTD ([5]; oral, administered in chow, read-out: MTD, predicted dose in mouse chow): 120 mg/kg
- concentrations that blocked Mer autophosphorylation (Mer): sub-micromolar
- colony formation in soft agar [6]: inhibited
- apoptosis and colony-formation in methylcellulose [11]: induction of apoptosis and reduced colony-formation
- toxicity in the TRIA model ([12]; 120 mpk/d in chow): mild, well tolerated toxicity
- complete responses (CRs) ([12]; TRIA, 8 mice): 3
- single agent activity ([12]; TRIA, 120 mpk/d in chow): pronounced single agent activity
- percent change in tumor volumes, waterfall plot, ranking ([12]; versus AZD6244, Carbo/Taxol, no treatment): best response
- single agent activity [13]: did not exhibit single agent activity

- oral bioavailability / pharmacokinetics [14]: orally bioavailable
Structure (SMILES): CCCCNc1ncc2c(-c3ccc(S(=O)(=O)N4CCOCC4)cc3)nn(C3CCC(O)CC3)c2n1 (stereo not drawn) [UNC1062]
- colony formation [8]: reduced colony formation
- invasion into collagen matrix (SKMEL119 melanoma cells): reduced invasion
